Assays:
[1] = test system: human non-small cell lung cancer-derived cell line A549; experiment: Matrix-Invasion assay (Matrigel); assay type: cell-based
Protocol: As a second test for determining whether or not the physiological function of cells induced by OPN production is suppressed by a test compound, Matrix-Invasion assay was performed. In this assay, cups (inserts) whose bottom was covered with a membrane coated with collagen or laminin (Matrigel, BD Bioscience) as an extracellular matrix component and having φ8 μm pores and a 24-well plate for inserting the inserts were prepared. Cells suspended in a serum-free medium were placed in the inside insert, and a medium containing a substance inducing metastasis and invasion of cells (here, fetal calf serum) was injected into each well of the outside 24-well plate to determine the number of cells passing through the Matrigel-coated membrane of the insert and coming into the outside well.
Specifically, a fluorescent dye was introduced into A549 cells invading outside the membrane, and then the cells were separated from the membrane to measure their fluorescence intensity. At the same time, a fluorescent dye was introduced also into a known number of cells for preparing a calibration curve, and a calibration curve was prepared from their fluorescence intensity. Then, the number of invading cells of a test sample containing an unknown number of cells was determined from the fitted curve.
Cancer cells produce OPN by stimulation of fetal calf serum added to the outside medium. However, when OPN is present in the culture liquid, the cells produce Matrix Metalloproteinase (MMP) that is a collagen-degrading enzyme so that Matrigel is dissolved, and in addition, the cells transfer to the outside well due to their improved migration capacity. […]
Cells of a human non-small cell lung cancer-derived cell line A549 were suspended in DMEM medium containing 10% FCS and 1% P/S at 1.8×10^5 cells/mL to obtain a cell suspension. […] This day was counted as Day 0 of operation. […]

[2] = test system: A549/OPNluc cells; experiment: WST assay (cell growth inhibition); assay type: cell-based; conditions: Homo sapiens, 48±4 hours, WST-1, read-out: IC50 (concentration for 50% inhibition of cell growth)
Text: A reporter vector pOPN1-luc obtained by inserting a human OPN promoter sequence (−765 to 23) into the multiple cloning site of pGL-3 basic vector (Promega) expresses luciferase when transfected into animal cells. This pOPN1-luc was transfected into a human non-small cell lung cancer-derived cell line A549 together with pPUR (Clontech) that expresses a puromycin resistance gene (puromycin-N-acetyl-transferase gene), and cells that could grow in a puromycin-supplemented medium and expressed luciferase were selected. The selected cells were named A549/OPNluc cells and used for observation of luciferase expression inhibitory effect under control of OPN promoter, as described later.
A test compound was added to a culture liquid containing A549/OPNluc cells to observe its influence on the amount of luciferase expressed in the cells. Here, it can be considered that when the test compound has cytotoxity or cell growth-suppressing effect, the total expression level of luciferase is reduced due to a reduction in the number of living cells that depends on the concentration of the test compound, and therefore the luciferase expression inhibitory effect of the test compound under control of OPN promoter cannot be properly evaluated. For this reason, WST assay for quantification of cell proliferation ability or cell viability by colorimetric measurement was first performed to determine IC50 (concentration for 50% inhibition of cell growth) of the test compound for cell growth. Then, luciferase activity measurement was performed to determine EC50 (concentration for 50% inhibition of luciferase expression) of the test compound for luciferase expression under control of OPN promoter.
A549/OPNluc cells were suspended in DMEM medium containing 10% fetal calf serum (FCS) and 1% penicillin/streptomycin (P/S) at 3×10^4 cells/mL to obtain a cell suspension, and 100 μL of the cell suspension was dispensed into each well of a 96-well plate. In order to perform the assay in triplicate, 3 wells were prepared for a control group and 3 wells were prepared for each test compound-treated group at each concentration. After the dispensing, the 96-well plate was incubated in a CO2 incubator (at 37° C. and 5% CO2) for 24±4 hours.
The test compound was dissolved in dimethylsulfoxide (DMSO) to obtain a 50 mmol/L solution, and the test compound solution was stored at −80° C. The test compound solution was diluted with DMSO in 2-fold dilution series (usually, in the range of 0.31 mmol/L to 20 mmol/L) to prepare test compound solutions whose concentration varied by two fold for WST assay.
Only DMSO (control) or the diluted test compound (sample) solution was dispensed in an amount of 0.5 μL into each well containing the cell suspension (200-fold dilution). The solution in each well was mixed with a vortex mixer, and then the 96-well plate was incubated in a CO2 incubator (at 37° C. and 5% CO2) for 48±4 hours. Then, 10 μL of Premix WST-1 Reagent (TAKARA BIO INC.) was added to each well. The solution in each well was mixed with a vortex mixer, and then the 96-well plate was incubated at 37° C. and 5% CO2. After 60 minutes or 120 minutes, absorbance values (450 nm) were measured using a microplate reader (Bio-Rad; Benchmark or Thermo Scientific; Varioskan Flash).
The absorbance values of the control wells and the absorbance values of the sample wells at each concentration were input into an Excel file to determine the percentages of absorbance values of the sample wells at each concentration with respect to the average of absorbance values of the control wells. From the determined values, a fitted curve was determined by the method of least squares to calculate IC50.

IC50 [2]: 56.2 µM
Compound: CCCCCCCCCCCC(=O)[C@H]1C(=O)O[C@@H](C)C[C@@H]1C [Chemical formula 3]
total number of invading cells vs control group ([1]; 25 μmol/L, 48±4 hours): no significant difference | total number of invading cells relative to control group ([1]; 50 μmol/L, 48±4 hours): about half | suppression of matrix invasion vs control group ([1]; A549 cells, 50 μmol/L, significance level less than 1%): significantly suppressed
